According to PMC8329300, “X-ray crystallography reveals molecular recognition mechanism for sugar binding in a melibiose transporter MelB” (Communications Biology, 2021):

Biological target: T1, D59C MelBSt (Salmonella typhimurium, UniProt P30878, D59C)
T1 construct: Cys scanning mutagenesis for the full-length MelBSt; His10 (C); made in house; host or cells: E. coli DW2
Test: Trp→dansyl galactoside (D2G) FRET time trace and IC50 of D2G displacement (D59C)
Assay type: binding
Conditions: IC50 of galactoside displacement on bound D2G, α-NPG, 10 μM D2G
Description: Fig. 1 Functional characterizations. a [^3H] Melibiose transport time course with intact cells. […] Inset, melibiose fermentation assay. Transformants with DW2 strain were plated on MacConkey agar plates containing 30 mM melibiose as the sole carbohydrate source and pH sensor neutral red, and incubated at 37 °C for 16–18 h before imaging. Number of tests = 3, from different batch of cells or duplicate measurements from same batch of sample. b Ligand binding by Trp→dansyl galactoside (D^2G) FRET assay. Purified proteins at 1 μM concentration in 20 mM Tris-HCl, pH 7.5, 100 mM CholCl, 10% glycerol, and 0.03% UDM were subjected to steady-state fluorescence measurements as described in Methods. On the time-trace, 1.8 μL of 1 mM D^2G at 10 μM was added into 180 μL of protein solutions at 1-min point, followed by supplying 10 μL of 5 mM DDMB or 5 mM α-NPG to displace the bound D^2G. For testing Na^+ or Li^+ binding, they are added into the solution before displacement with the second sugar. The structure of DDMB or α-NPG is shown in a chair form, and the carbon positions are labeled. Glycosidic bonds are indicated by arrows. Both are α-galactosides containing a substituent at the anomeric carbon-1. The data were from duplicate measurements.
Steady-state fluorescence measurements were performed with an AMINCO-Bowman series 2 spectrometer with purified MelBSt at 1 μM in 20 mM Tris-HCl, pH 7.5, 100 mM CholCl, 10% glycerol, 0.03% UDM. Using an excitation wavelength at 290 nm, the emission intensity was recorded at 490 nm. On a time-trace, D^2G, NaCl or LiCl, then DDMB or α-NPG, were sequentially added into the protein solutions at a 1 min-interval. […] An identical volume of water was used for the control. The decrease in intensity after each addition of DDMB or α-NPG was corrected by the dilution effect and plotted as a function of the accumulated α-NPG concentrations or estimated DDMB concentrations. The 50% inhibitory concentration (IC50) was determined by fitting a hyperbolic function to the data (OriginPro 2020b). The final concentration of each detergent is estimated to be 234 μM, which is less than their CMC value for (DDMB, 295 μM).
Supplementary Figure 2. Determination of DDMB binding affinity to MelBSt. (a) Titration with DDMB or a-NPG. MelBSt in 20 mM Tris-HCl, pH 7.5, 100 mM CholCl, 10% glycerol, 0.03% UDM without (1) or with 100 mM NaCl (2) were added with D2G at 10 μM at 1-min time point as indicated by triangle symbols on the Trp®dansyl FRET time trace. Starting at the 2-min of time point, DDMB or a-NPG solution was supplemented consecutively at a 1-min interval into MelBSt solution till no change in fluorescence intensity reached as indicated in star symbols. DDM and UDM were used as negative controls. 1% DDM or UDM was titrated into the mixture, The […]
At 2-min time point, additions of galactosides were colored in pink, a-NPG in yellow, UDM in blue, DDM in light blue, water in gray traces, respectively. (b) IC50 determination. The intensity decrease at each titration were corrected by the dilution effect, and plotted as a function of the accumulated DDMB or α-NPG concentration. The 50% inhibitory concentration (IC50) was determined by fitting the data to a hyperbolic function (OriginPro 2020b). Results are presented in […]
(1 picture or pasted object on this page, not shown here)

T1 sequence (P30878 whole entry D59C): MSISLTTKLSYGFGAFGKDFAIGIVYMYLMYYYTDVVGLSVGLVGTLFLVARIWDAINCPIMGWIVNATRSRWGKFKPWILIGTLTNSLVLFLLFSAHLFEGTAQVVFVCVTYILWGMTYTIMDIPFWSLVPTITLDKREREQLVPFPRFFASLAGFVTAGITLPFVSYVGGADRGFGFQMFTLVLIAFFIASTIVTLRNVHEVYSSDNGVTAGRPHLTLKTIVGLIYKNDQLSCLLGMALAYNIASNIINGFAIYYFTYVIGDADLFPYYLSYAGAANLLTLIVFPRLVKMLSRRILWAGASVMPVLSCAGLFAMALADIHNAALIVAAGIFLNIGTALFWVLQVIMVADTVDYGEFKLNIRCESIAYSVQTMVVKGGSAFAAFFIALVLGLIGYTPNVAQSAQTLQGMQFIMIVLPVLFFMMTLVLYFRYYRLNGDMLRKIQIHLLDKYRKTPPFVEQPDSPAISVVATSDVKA

For `O=[N+]([O-])c1ccc(OC2OC(CO)C(O)C(O)C2O)cc1` [α-NPG, 4-nitrophenyl-α-D-galactopyranoside], the IC50 (Apo) was 22.1 ± 5.75 µM and the IC50 (Na+ (100 mM)) was 21.3 ± 1.67 µM.
